Measured values: the supplement of paper PMC10307832

What was measured:
Experiment in all cases: relative viability (nuclei count vs DMSO), 5 days (fraction); higher = more cells survive
Metformin + Bortezomib = compound: CN(C)C(=N)NC(=N)N [Metformin] + CC(C)C[C@H](NC(=O)[C@H](Cc1ccccc1)NC(=O)c1cnccn1)B(O)O [Bortezomib] (partner 0.002 µM)
In short: (§1)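 Lung cancer cell lines, seeded in 1536-well plates, were treated the following day by pin tool with a single drug or with five library-drug doses (not always all listed) in √10 steps on top of a fixed anchor-drug dose. Cells were fixed and nuclei stained in one step after 5 days, and nuclei were counted. Relative viability is the nuclei count for treated wells divided by that for vehicle wells, reported as medians of duplicate plates.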

Metformin + Dasatinib = compound: CN(C)C(=N)NC(=N)N [Metformin] + Cc1nc(Nc2ncc(C(=O)Nc3c(C)cccc3Cl)s2)cc(N2CCN(CCO)CC2)n1 [Dasatinib] (partner 0.075 µM)
In short: as §1

Apatinib + Trametinib = compound: N#CC1(c2ccc(NC(=O)c3cccnc3NCc3ccncc3)cc2)CCCC1 [Apatinib] + CC(=O)Nc1cccc(-n2c(=O)n(C3CC3)c(=O)c3c(Nc4ccc(I)cc4F)n(C)c(=O)c(C)c32)c1 [Trametinib] (partner 0.02 µM)
In short: as §1

Apatinib + Foretinib = compound: N#CC1(c2ccc(NC(=O)c3cccnc3NCc3ccncc3)cc2)CCCC1 [Apatinib] + COc1cc2c(Oc3ccc(NC(=O)C4(C(=O)Nc5ccc(F)cc5)CC4)cc3F)ccnc2cc1OCCCN1CCOCC1 [Foretinib] (partner 0.25 µM)
In short: as §1

PC-3 [JPC-3]
relative viability (Metformin + Bortezomib; first compound 10 µM): 0.702 | relative viability (Metformin + Bortezomib; first compound 31.62 µM): 0.865 | relative viability (Metformin + Bortezomib; first compound 100 µM): 0.772 | relative viability (Metformin + Bortezomib; first compound 316.23 µM): 0.862 | relative viability (Metformin + Bortezomib; first compound 1000 µM): 0.833 | relative viability (Metformin + Dasatinib; first compound 10 µM): 0.944 | relative viability (Metformin + Dasatinib; first compound 31.62 µM): 0.889 | relative viability (Metformin + Dasatinib; first compound 100 µM): 0.979 | relative viability (Metformin + Dasatinib; first compound 316.23 µM): 0.886 | relative viability (Metformin + Dasatinib; first compound 1000 µM): 0.986 | relative viability (Apatinib + Trametinib; first compound 0.253 µM): 0.786 | relative viability (Apatinib + Trametinib; first compound 0.8 µM): 0.553 | relative viability (Apatinib + Trametinib; first compound 2.53 µM): 0.646 | relative viability (Apatinib + Trametinib; first compound 8 µM): 0.654 | relative viability (Apatinib + Foretinib; first compound 0.08 µM): 1.02 | relative viability (Apatinib + Foretinib; first compound 0.253 µM): 1 | relative viability (Apatinib + Foretinib; first compound 0.8 µM): 0.986 | relative viability (Apatinib + Foretinib; first compound 2.53 µM): 0.925 | relative viability (Apatinib + Foretinib; first compound 8 µM): 0.853

UMC-11
relative viability (Metformin + Bortezomib; first compound 10 µM): 0.56 | relative viability (Metformin + Bortezomib; first compound 31.62 µM): 0.914 | relative viability (Metformin + Bortezomib; first compound 100 µM): 0.791 | relative viability (Metformin + Bortezomib; first compound 316.23 µM): 0.694 | relative viability (Metformin + Bortezomib; first compound 1000 µM): 0.618 | relative viability (Metformin + Dasatinib; first compound 10 µM): 0.528 | relative viability (Metformin + Dasatinib; first compound 31.62 µM): 0.482 | relative viability (Metformin + Dasatinib; first compound 100 µM): 0.546 | relative viability (Metformin + Dasatinib; first compound 316.23 µM): 0.447 | relative viability (Metformin + Dasatinib; first compound 1000 µM): 0.45 | relative viability (Apatinib + Trametinib; first compound 0.08 µM): 0.816 | relative viability (Apatinib + Trametinib; first compound 0.253 µM): 0.686 | relative viability (Apatinib + Trametinib; first compound 0.8 µM): 0.631 | relative viability (Apatinib + Trametinib; first compound 2.53 µM): 0.668 | relative viability (Apatinib + Trametinib; first compound 8 µM): 0.647 | relative viability (Apatinib + Foretinib; first compound 0.08 µM): 1.04 | relative viability (Apatinib + Foretinib; first compound 0.253 µM): 1.09 | relative viability (Apatinib + Foretinib; first compound 0.8 µM): 0.935 | relative viability (Apatinib + Foretinib; first compound 2.53 µM): 0.939 | relative viability (Apatinib + Foretinib; first compound 8 µM): 1.03

H3255
relative viability (Metformin + Bortezomib; first compound 10 µM): 0.716 | relative viability (Metformin + Bortezomib; first compound 31.62 µM): 0.89 | relative viability (Metformin + Bortezomib; first compound 100 µM): 0.88 | relative viability (Metformin + Bortezomib; first compound 316.23 µM): 0.991 | relative viability (Metformin + Bortezomib; first compound 1000 µM): 0.415 | relative viability (Metformin + Dasatinib; first compound 10 µM): 0.391 | relative viability (Metformin + Dasatinib; first compound 31.62 µM): 0.344 | relative viability (Metformin + Dasatinib; first compound 100 µM): 0.232 | relative viability (Metformin + Dasatinib; first compound 316.23 µM): 0.402 | relative viability (Metformin + Dasatinib; first compound 1000 µM): 0.315 | relative viability (Apatinib + Trametinib; first compound 0.08 µM): 0.655 | relative viability (Apatinib + Trametinib; first compound 0.253 µM): 0.588 | relative viability (Apatinib + Trametinib; first compound 0.8 µM): 0.669 | relative viability (Apatinib + Trametinib; first compound 2.53 µM): 0.597 | relative viability (Apatinib + Trametinib; first compound 8 µM): 0.535 | relative viability (Apatinib + Foretinib; first compound 0.08 µM): 0.973 | relative viability (Apatinib + Foretinib; first compound 0.253 µM): 0.795 | relative viability (Apatinib + Foretinib; first compound 0.8 µM): 0.757 | relative viability (Apatinib + Foretinib; first compound 2.53 µM): 0.753 | relative viability (Apatinib + Foretinib; first compound 8 µM): 0.675

NCI-H1651
relative viability (Metformin + Bortezomib; first compound 10 µM): 0.989 | relative viability (Metformin + Bortezomib; first compound 31.62 µM): 1.15 | relative viability (Metformin + Bortezomib; first compound 100 µM): 1.16 | relative viability (Metformin + Bortezomib; first compound 316.23 µM): 1.04 | relative viability (Metformin + Bortezomib; first compound 1000 µM): 1.08 | relative viability (Metformin + Dasatinib; first compound 10 µM): 0.757 | relative viability (Metformin + Dasatinib; first compound 31.62 µM): 0.349 | relative viability (Metformin + Dasatinib; first compound 100 µM): 0.346 | relative viability (Metformin + Dasatinib; first compound 316.23 µM): 0.361 | relative viability (Metformin + Dasatinib; first compound 1000 µM): 0.464 | relative viability (Apatinib + Trametinib; first compound 0.08 µM): 0.84 | relative viability (Apatinib + Trametinib; first compound 0.253 µM): 0.874 | relative viability (Apatinib + Trametinib; first compound 0.8 µM): 0.821 | relative viability (Apatinib + Trametinib; first compound 2.53 µM): 0.75 | relative viability (Apatinib + Trametinib; first compound 8 µM): 0.684 | relative viability (Apatinib + Foretinib; first compound 0.08 µM): 0.925 | relative viability (Apatinib + Foretinib; first compound 0.253 µM): 0.897 | relative viability (Apatinib + Foretinib; first compound 0.8 µM): 0.765 | relative viability (Apatinib + Foretinib; first compound 2.53 µM): 0.577 | relative viability (Apatinib + Foretinib; first compound 8 µM): 0.495

NCI-H1355
relative viability (Metformin + Bortezomib; first compound 10 µM): 1.1 | relative viability (Metformin + Bortezomib; first compound 31.62 µM): 1.18 | relative viability (Metformin + Bortezomib; first compound 100 µM): 1.14 | relative viability (Metformin + Bortezomib; first compound 316.23 µM): 1.17 | relative viability (Metformin + Bortezomib; first compound 1000 µM): 1.24 | relative viability (Metformin + Dasatinib; first compound 10 µM): 0.718 | relative viability (Metformin + Dasatinib; first compound 31.62 µM): 0.638 | relative viability (Metformin + Dasatinib; first compound 100 µM): 0.681 | relative viability (Metformin + Dasatinib; first compound 316.23 µM): 0.638 | relative viability (Metformin + Dasatinib; first compound 1000 µM): 0.778 | relative viability (Apatinib + Trametinib; first compound 0.08 µM): 0.422 | relative viability (Apatinib + Trametinib; first compound 0.253 µM): 0.444 | relative viability (Apatinib + Trametinib; first compound 0.8 µM): 0.354 | relative viability (Apatinib + Trametinib; first compound 2.53 µM): 0.367 | relative viability (Apatinib + Trametinib; first compound 8 µM): 0.314 | relative viability (Apatinib + Foretinib; first compound 0.08 µM): 0.961 | relative viability (Apatinib + Foretinib; first compound 0.253 µM): 0.9 | relative viability (Apatinib + Foretinib; first compound 0.8 µM): 1.07 | relative viability (Apatinib + Foretinib; first compound 2.53 µM): 0.9 | relative viability (Apatinib + Foretinib; first compound 8 µM): 0.786

HOP-62
relative viability (Metformin + Bortezomib; first compound 10 µM): 0.602 | relative viability (Metformin + Bortezomib; first compound 31.62 µM): 0.745 | relative viability (Metformin + Bortezomib; first compound 100 µM): 0.209 | relative viability (Metformin + Bortezomib; first compound 316.23 µM): 0.723 | relative viability (Metformin + Bortezomib; first compound 1000 µM): 0.816 | relative viability (Metformin + Dasatinib; first compound 10 µM): 0.748 | relative viability (Metformin + Dasatinib; first compound 31.62 µM): 0.664 | relative viability (Metformin + Dasatinib; first compound 100 µM): 0.687 | relative viability (Metformin + Dasatinib; first compound 316.23 µM): 0.713 | relative viability (Metformin + Dasatinib; first compound 1000 µM): 0.655 | relative viability (Apatinib + Trametinib; first compound 0.08 µM): 0.411 | relative viability (Apatinib + Trametinib; first compound 0.253 µM): 0.395 | relative viability (Apatinib + Trametinib; first compound 0.8 µM): 0.36 | relative viability (Apatinib + Trametinib; first compound 2.53 µM): 0.422 | relative viability (Apatinib + Trametinib; first compound 8 µM): 0.394 | relative viability (Apatinib + Foretinib; first compound 0.08 µM): 1.15 | relative viability (Apatinib + Foretinib; first compound 0.253 µM): 1.18 | relative viability (Apatinib + Foretinib; first compound 0.8 µM): 1.11 | relative viability (Apatinib + Foretinib; first compound 2.53 µM): 1.1 | relative viability (Apatinib + Foretinib; first compound 8 µM): 0.848
